Measurements as given in BindingDB's records for doi:10.1021/jm00140a010 (1982).
Where a name gives a salt, the structure may show the parent alone.

Biological target: Angiotensin-converting enzyme
Test: Concentration required to inhibit the activity of Angiotensin I converting enzyme by 50%

SMILES	IC50 [µM]
CC(=O)NC(Cc1ccccc1)C(=O)CCC(=O)N1CCC[C@H]1C(=O)O (stereo not given in full) [1-(5-Acetylamino-4-oxo-6-phenyl-hexanoyl)-pyrrolidine-2-carboxylic acid]	0.33
NC(Cc1ccccc1)C(=O)CCC(=O)N1CCC[C@H]1C(=O)O (stereo not given in full) [1-(5-Amino-4-oxo-6-phenyl-hexanoyl)-pyrrolidine-2-carboxylic acid; hydrochloride]	25
O=C(NC(Cc1ccccc1)=C(CCC(=O)N1CCC[C@H]1C(=O)O)NO)c1ccccc1 [1-(5-Benzoylamino-4-hydroxyimino-6-phenyl-hexanoyl)-pyrrolidine-2-carboxylic acid]	1.2
NC(=O)[C@@H]1CCCN1C(=O)CCC(=O)C(Cc1ccccc1)NC(=O)c1ccccc1 (stereo not given in full) [1-(5-Benzoylamino-4-oxo-6-phenyl-hexanoyl)-pyrrolidine-2-carboxylic acid amide]	0.15
O=C(NC(Cc1cccnc1)C(=O)CCC(=O)N1CCC[C@H]1C(=O)OCc1ccccc1)c1ccccc1 (stereo not given in full) [1-(5-Benzoylamino-4-oxo-6-pyridin-3-yl-hexanoyl)-pyrrolidine-2-carboxylic acid benzyl ester]	0.015
O=C(NC(Cc1cccnc1)C(=O)CCC(=O)N1CCC[C@H]1C(=O)O)c1ccccc1 (stereo not given in full) [1-(5-Benzoylamino-4-oxo-6-pyridin-3-yl-hexanoyl)-pyrrolidine-2-carboxylic acid]	0.0057
CC(NC(=O)c1ccccc1)C(=O)CCC(=O)N1CCC[C@H]1C(=O)O (stereo not given in full) [1-(5-Benzoylamino-4-oxo-hexanoyl)-pyrrolidine-2-carboxylic acid]	0.3
O=C(NC(Cc1ccccc1)C(=O)CCC(=O)N1CCC[C@H]1C(=O)O)OCc1ccccc1 (stereo not given in full) [1-(5-Benzyloxycarbonylamino-4-oxo-6-phenyl-hexanoyl)-pyrrolidine-2-carboxylic acid]	0.24
O=C(NC(Cc1ccccc1)C(=O)CCCC(=O)N1CCC[C@H]1C(=O)O)c1ccccc1 (stereo not given in full) [1-(6-Benzoylamino-5-oxo-7-phenyl-heptanoyl)-pyrrolidine-2-carboxylic acid]	0.042
Cc1ccccc1C(=O)NC(Cc1ccccc1)C(=O)CCC(=O)N1CCC[C@H]1C(=O)OCc1ccccc1 (stereo not given in full) [1-[5-(2-Methyl-benzoylamino)-4-oxo-6-phenyl-hexanoyl]-pyrrolidine-2-carboxylic acid benzyl ester]	1.6
Cc1ccccc1C(=O)NC(Cc1ccccc1)C(=O)CCC(=O)N1CCC[C@H]1C(=O)O (stereo not given in full) [1-[5-(2-Methyl-benzoylamino)-4-oxo-6-phenyl-hexanoyl]-pyrrolidine-2-carboxylic acid]	0.046
COc1ccc(CC(NC(=O)c2ccccc2)C(=O)CCC(=O)N2CCC[C@H]2C(=O)O)cc1OC (stereo not given in full) [1-[5-Benzoylamino-6-(3,4-dimethoxy-phenyl)-4-oxo-hexanoyl]-pyrrolidine-2-carboxylic acid]	0.0014
O=C(NC(Cc1ccc(OCc2ccccc2)cc1)C(=O)CCC(=O)N1CCC[C@H]1C(=O)OCc1ccccc1)c1ccccc1 (stereo not given in full) [1-[5-Benzoylamino-6-(4-benzyloxy-phenyl)-4-oxo-hexanoyl]-pyrrolidine-2-carboxylic acid benzyl ester]	0.086
CC(C)(C)OC(=O)[C@@H]1CCCN1C(=O)CCC(=O)C(Cc1ccc(OCc2ccccc2)cc1)NC(=O)c1ccccc1 (stereo not given in full) [1-[5-Benzoylamino-6-(4-benzyloxy-phenyl)-4-oxo-hexanoyl]-pyrrolidine-2-carboxylic acid tert-butyl ester]	8.6
O=C(NC(Cc1ccc(OCc2ccccc2)cc1)C(=O)CCC(=O)N1CCC[C@H]1C(=O)O)c1ccccc1 (stereo not given in full) [1-[5-Benzoylamino-6-(4-benzyloxy-phenyl)-4-oxo-hexanoyl]-pyrrolidine-2-carboxylic acid]	0.01
O=C(NC(Cc1ccc(O)cc1)C(=O)CCC(=O)N1CCC[C@H]1C(=O)O)c1ccccc1 (stereo not given in full) [1-[5-Benzoylamino-6-(4-hydroxy-phenyl)-4-oxo-hexanoyl]-pyrrolidine-2-carboxylic acid]	0.0047
O=C(CCC(=O)N1CCC[C@H]1C(=O)O)C(Cc1ccccc1)NC(=O)C1CCCO1 (stereo not given in full) [1-{4-Oxo-6-phenyl-5-[(tetrahydro-furan-2-carbonyl)-amino]-hexanoyl}-pyrrolidine-2-carboxylic acid]	0.02
O=C(NC(Cc1ccccc1)C(=O)CCC(=O)N1CCC[C@H]1C(=O)O)c1ccco1 (stereo not given in full) [1-{5-[(Furan-2-carbonyl)-amino]-4-oxo-6-phenyl-hexanoyl}-pyrrolidine-2-carboxylic acid]	0.0014
O=C(CCC(=O)C(Cc1ccccc1)NC(=O)c1ccccc1)NC(Cc1ccccc1)C(=O)OCc1ccccc1 (stereo not given) [2-(5-Benzoylamino-4-oxo-6-phenyl-hexanoylamino)-3-phenyl-propionic acid benzyl ester]	0.18
O=C(CCC(=O)C(Cc1ccccc1)NC(=O)c1ccccc1)N[C@H](Cc1ccccc1)C(=O)O (stereo not given in full) [2-(5-Benzoylamino-4-oxo-6-phenyl-hexanoylamino)-3-phenyl-propionic acid]	0.028
